Data from the supplement of paper PMC10307832.

Assays:
Experiment in all cases: relative viability (nuclei count vs DMSO), 5 days (fraction); higher = more cells survive
PC-14 = tested on: PC-14
Procedure, shortened: (§1)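 Five library-drug doses in √10 steps were combined with a fixed anchor-drug dose, or a single drug was given alone, by pin tool to lung cancer cell lines in 1536-well plates the day after seeding. Nuclei were stained and counted after 5 days. Relative viability is the nuclei count in treated wells over that in vehicle wells, taken as the median of duplicate plates.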

NCI-H1563 = tested on: NCI-H1563
Procedure, shortened: as §1

HARA = tested on: HARA
Procedure, shortened: as §1

LU99A = tested on: LU99A
Procedure, shortened: as §1

HOP-62 = tested on: HOP-62
Procedure, shortened: as §1

NCI-H2087 = tested on: NCI-H2087
Procedure, shortened: as §1

LCLC-97TM1 = tested on: LCLC-97TM1
Procedure, shortened: as §1

CAL-12T = tested on: CAL-12T
Procedure, shortened: as §1

HCC-366 = tested on: HCC-366
Procedure, shortened: as §1

HCC-827 = tested on: HCC-827
Procedure, shortened: as §1

LC-2-ad = tested on: LC-2-ad
Procedure, shortened: as §1

COR-L23 = tested on: COR-L23
Procedure, shortened: as §1

BEN = tested on: BEN
Procedure, shortened: as §1

HCC-15 = tested on: HCC-15
Procedure, shortened: as §1

HCC-44 = tested on: HCC-44
Procedure, shortened: as §1

NCI-H727 = tested on: NCI-H727
Procedure, shortened: as §1

NCI-H2170 = tested on: NCI-H2170
Procedure, shortened: as §1

NCI-H2126 = tested on: NCI-H2126
Procedure, shortened: as §1

NCI-H2009 = tested on: NCI-H2009
Procedure, shortened: as §1

COR-L 105 = tested on: COR-L 105
Procedure, shortened: as §1

NCI-H1993 = tested on: NCI-H1993
Procedure, shortened: as §1

LXF-289 = tested on: LXF-289
Procedure, shortened: as §1

PC-3 [JPC-3] = tested on: PC-3 [JPC-3]
Procedure, shortened: as §1

SK-MES-1 = tested on: SK-MES-1
Procedure, shortened: as §1

## CCCCCCCCCCCC1=C(O)C(=O)C=C(O)C1=O [Embelin] + CS(=O)(=O)CCNCc1ccc(-c2ccc3ncnc(Nc4ccc(OCc5cccc(F)c5)c(Cl)c4)c3c2)o1 [Lapatinib] (partner 2 µM)
PC-14; first compound 0.08 µM
  relative viability: 0.391
PC-14; first compound 0.8 µM
  relative viability: 0.355
PC-14; first compound 2.53 µM
  relative viability: 0.347
PC-14; first compound 8 µM
  relative viability: 0.353
NCI-H1563; first compound 0.08 µM
  relative viability: 0.869
NCI-H1563; first compound 0.8 µM
  relative viability: 1.11
NCI-H1563; first compound 2.53 µM
  relative viability: 0.838
NCI-H1563; first compound 8 µM
  relative viability: 0.839
HARA; first compound 0.08 µM
  relative viability: 0.665
HARA; first compound 0.8 µM
  relative viability: 0.961
HARA; first compound 2.53 µM
  relative viability: 0.895
HARA; first compound 8 µM
  relative viability: 0.755
LU99A; first compound 0.08 µM
  relative viability: 0.999
LU99A; first compound 0.8 µM
  relative viability: 0.991
LU99A; first compound 2.53 µM
  relative viability: 1.12
LU99A; first compound 8 µM
  relative viability: 0.855
HOP-62; first compound 0.08 µM
  relative viability: 1.01
HOP-62; first compound 0.8 µM
  relative viability: 1.08
HOP-62; first compound 2.53 µM
  relative viability: 1.1
HOP-62; first compound 8 µM
  relative viability: 0.908
NCI-H2087; first compound 0.08 µM
  relative viability: 1.07
NCI-H2087; first compound 0.8 µM
  relative viability: 1.02
NCI-H2087; first compound 2.53 µM
  relative viability: 1.2
NCI-H2087; first compound 8 µM
  relative viability: 1.23
LCLC-97TM1; first compound 0.8 µM
  relative viability: 1.48
LCLC-97TM1; first compound 2.53 µM
  relative viability: 0.823
LCLC-97TM1; first compound 8 µM
  relative viability: 0.86
CAL-12T; first compound 0.08 µM
  relative viability: 0.757
CAL-12T; first compound 0.8 µM
  relative viability: 0.878
CAL-12T; first compound 8 µM
  relative viability: 0.703
HCC-366; first compound 0.08 µM
  relative viability: 1.08
HCC-366; first compound 0.8 µM
  relative viability: 1.11
HCC-366; first compound 2.53 µM
  relative viability: 1.21
HCC-366; first compound 8 µM
  relative viability: 1.32
HCC-827; first compound 0.08 µM
  relative viability: 0.157
HCC-827; first compound 0.8 µM
  relative viability: 0.176
HCC-827; first compound 2.53 µM
  relative viability: 0.179
HCC-827; first compound 8 µM
  relative viability: 0.197
LC-2-ad; first compound 0.08 µM
  relative viability: 0.96
LC-2-ad; first compound 0.8 µM
  relative viability: 1.16
LC-2-ad; first compound 2.53 µM
  relative viability: 1.07
LC-2-ad; first compound 8 µM
  relative viability: 0.983
COR-L23; first compound 0.08 µM
  relative viability: 0.927
COR-L23; first compound 0.8 µM
  relative viability: 0.966
COR-L23; first compound 2.53 µM
  relative viability: 1.34
COR-L23; first compound 8 µM
  relative viability: 1.09
BEN; first compound 0.08 µM
  relative viability: 0.697
BEN; first compound 0.8 µM
  relative viability: 0.887
BEN; first compound 2.53 µM
  relative viability: 0.805
BEN; first compound 8 µM
  relative viability: 0.73
HCC-15; first compound 0.08 µM
  relative viability: 0.835
HCC-15; first compound 0.8 µM
  relative viability: 0.92
HCC-15; first compound 2.53 µM
  relative viability: 0.944
HCC-15; first compound 8 µM
  relative viability: 0.795
HCC-44; first compound 0.08 µM
  relative viability: 1.03
HCC-44; first compound 0.8 µM
  relative viability: 1.02
HCC-44; first compound 2.53 µM
  relative viability: 1.15
HCC-44; first compound 8 µM
  relative viability: 0.908
NCI-H727; first compound 0.08 µM
  relative viability: 0.737
NCI-H727; first compound 0.8 µM
  relative viability: 0.753
NCI-H727; first compound 2.53 µM
  relative viability: 1.13
NCI-H727; first compound 8 µM
  relative viability: 0.738
NCI-H2170; first compound 0.08 µM
  relative viability: 0.276
NCI-H2170; first compound 0.8 µM
  relative viability: 0.282
NCI-H2170; first compound 2.53 µM
  relative viability: 0.275
NCI-H2170; first compound 8 µM
  relative viability: 0.253
NCI-H2126; first compound 0.08 µM
  relative viability: 0.742
NCI-H2126; first compound 0.8 µM
  relative viability: 0.791
NCI-H2126; first compound 2.53 µM
  relative viability: 0.83
NCI-H2126; first compound 8 µM
  relative viability: 0.643
NCI-H2009; first compound 0.08 µM
  relative viability: 1.05
NCI-H2009; first compound 0.8 µM
  relative viability: 1.09
NCI-H2009; first compound 2.53 µM
  relative viability: 0.815
NCI-H2009; first compound 8 µM
  relative viability: 0.879
COR-L 105; first compound 0.08 µM
  relative viability: 0.356
COR-L 105; first compound 0.8 µM
  relative viability: 0.436
COR-L 105; first compound 2.53 µM
  relative viability: 0.384
COR-L 105; first compound 8 µM
  relative viability: 0.391
NCI-H1993; first compound 0.08 µM
  relative viability: 0.845
NCI-H1993; first compound 0.8 µM
  relative viability: 0.777
NCI-H1993; first compound 2.53 µM
  relative viability: 0.803
NCI-H1993; first compound 8 µM
  relative viability: 0.834
LXF-289; first compound 0.08 µM
  relative viability: 0.961
LXF-289; first compound 0.8 µM
  relative viability: 0.882
LXF-289; first compound 2.53 µM
  relative viability: 0.978
LXF-289; first compound 8 µM
  relative viability: 0.936
PC-3 [JPC-3]; first compound 0.08 µM
  relative viability: 0.428
PC-3 [JPC-3]; first compound 0.8 µM
  relative viability: 0.473
PC-3 [JPC-3]; first compound 2.53 µM
  relative viability: 0.477
PC-3 [JPC-3]; first compound 8 µM
  relative viability: 0.406
SK-MES-1; first compound 0.08 µM
  relative viability: 0.496
SK-MES-1; first compound 0.8 µM
  relative viability: 0.496
SK-MES-1; first compound 2.53 µM
  relative viability: 0.516
SK-MES-1; first compound 8 µM
  relative viability: 0.477
